Experimental data as given in ChEMBL document CHEMBL4002566, “S-substituted 3,5-dinitrophenyl 1,3,4-oxadiazole-2-thiols and tetrazole-5-thiols as highly efficient antitubercular agents” (Eur J Med Chem, 2017).
pIC50: −log10 of the molar value. Values after ≈ are worked out from the molar mass of the structure shown.

Assays:
Mycobacterium avium [1] = assay: Antimycobacterial activity against Mycobacterium avium CNCTC My 330/88 after 21 days by micromethod; assay type: functional; details: CNCTC My 330/88, 504 h
[2] = test system: Mycobacterium tuberculosis; assay: Antimycobacterial activity against Mycobacterium tuberculosis CNCTC My 331/88 after 14 days by micromethod; assay type: functional; details: CNCTC My 331/88, 336 h
Mycobacterium avium [3] = assay: Antimycobacterial activity against Mycobacterium avium CNCTC My 330/88 after 14 days by micromethod; assay type: functional; details: CNCTC My 330/88, 336 h
Mycobacterium kansasii [4] = assay: Antimycobacterial activity against Mycobacterium kansasii CNCTC My 235/80 after 14 days by micromethod; assay type: functional; details: CNCTC My 235/80, 336 h
Mycobacterium kansasii [5] = assay: Antimycobacterial activity against Mycobacterium kansasii 6509/96 clinical isolate after 14 days by micromethod; assay type: functional; details: 6509/96, 336 h
Candida albicans [6] = assay: Antifungal activity against Candida albicans ATCC 44859 after 24 hrs by broth microdilution method; assay type: functional; details: ATCC 44859, 24 h
Candida albicans [7] = assay: Antifungal activity against Candida albicans ATCC 44859 after 48 hrs by broth microdilution method; assay type: functional; details: ATCC 44859, 48 h
Candida tropicalis [8] = assay: Antifungal activity against Candida tropicalis 156 after 24 hrs by broth microdilution method; assay type: functional; details: Candida tropicalis, 156, 24 h
Candida tropicalis [9] = assay: Antifungal activity against Candida tropicalis 156 after 48 hrs by broth microdilution method; assay type: functional; details: Candida tropicalis, 156, 48 h
Pichia kudriavzevii [10] = assay: Antifungal activity against Candida krusei E28 after 24 hrs by broth microdilution method; assay type: functional; details: E28, 24 h
Pichia kudriavzevii [11] = assay: Antifungal activity against Candida krusei E28 after 48 hrs by broth microdilution method; assay type: functional; details: E28, 48 h
Nakaseomyces glabratus [12] = assay: Antifungal activity against Candida glabrata 20/I after 24 hrs by broth microdilution method; assay type: functional
Nakaseomyces glabratus [13] = assay: Antifungal activity against Candida glabrata 20/I after 48 hrs by broth microdilution method; assay type: functional
Trichosporon asahii [14] = assay: Antifungal activity against Trichosporon asahii 1188 after 24 hrs by broth microdilution method; assay type: functional; details: Trichosporon asahii, 1188, 24 h
Trichosporon asahii [15] = assay: Antifungal activity against Trichosporon asahii 1188 after 48 hrs by broth microdilution method; assay type: functional; details: Trichosporon asahii, 1188, 48 h
Aspergillus fumigatus [16] = assay: Antifungal activity against Aspergillus fumigatus 231 after 24 hrs by broth microdilution method; assay type: functional; details: Aspergillus fumigatus, 231, 24 h
Aspergillus fumigatus [17] = assay: Antifungal activity against Aspergillus fumigatus 231 after 48 hrs by broth microdilution method; assay type: functional; details: Aspergillus fumigatus, 231, 48 h
Lichtheimia corymbifera [18] = assay: Antifungal activity against Absidia corymbifera 272 after 24 hrs by broth microdilution method; assay type: functional; details: Lichtheimia corymbifera, 272, 24 h
Lichtheimia corymbifera [19] = assay: Antifungal activity against Absidia corymbifera 272 after 48 hrs by broth microdilution method; assay type: functional; details: Lichtheimia corymbifera, 272, 48 h
[20] = test system: Trichophyton mentagrophytes; assay: Antifungal activity against Trichophyton mentagrophytes 445 after 72 hrs by broth microdilution method; assay type: functional; details: Trichophyton mentagrophytes, 445, 72 h
[21] = test system: Trichophyton mentagrophytes; assay: Antifungal activity against Trichophyton mentagrophytes 445 after 120 hrs by broth microdilution method; assay type: functional; details: Trichophyton mentagrophytes, 445, 120 h
Staphylococcus aureus [22] = assay: Antibacterial activity against Staphylococcus aureus ATCC 6538 after 24 hrs by broth microdilution method; assay type: functional; details: ATCC 6538, 24 h
Staphylococcus aureus [23] = assay: Antibacterial activity against Staphylococcus aureus ATCC 6538 after 48 hrs by broth microdilution method; assay type: functional; details: ATCC 6538, 48 h
Staphylococcus aureus [24] = assay: Antibacterial activity against methicillin-resistant Staphylococcus aureus HK5996/08 after 24 hrs by broth microdilution method; assay type: functional; details: HK5996/08, 24 h
Staphylococcus aureus [25] = assay: Antibacterial activity against methicillin-resistant Staphylococcus aureus HK5996/08 after 48 hrs by broth microdilution method; assay type: functional; details: HK5996/08, 48 h
[26] = test system: Staphylococcus epidermidis; assay: Antibacterial activity against Staphylococcus epidermidis HK6996/08 after 24 hrs by broth microdilution method; assay type: functional; details: HK6996/08, 24 h
[27] = test system: Staphylococcus epidermidis; assay: Antibacterial activity against Staphylococcus epidermidis HK6996/08 after 48 hrs by broth microdilution method; assay type: functional; details: HK6996/08, 48 h
Enterococcus sp. [28] = assay: Antibacterial activity against Enterococcus sp. HK14365/08 after 24 hrs by broth microdilution method; assay type: functional; details: HK14365/08, 24 h
Enterococcus sp. [29] = assay: Antibacterial activity against Enterococcus sp. HK14365/08 after 48 hrs by broth microdilution method; assay type: functional; details: HK14365/08, 48 h
Escherichia coli [30] = assay: Antibacterial activity against Escherichia coli ATCC 8739 after 24 hrs by broth microdilution method; assay type: functional; details: ATCC 8739, 24 h
Escherichia coli [31] = assay: Antibacterial activity against Escherichia coli ATCC 8739 after 48 hrs by broth microdilution method; assay type: functional; details: ATCC 8739, 48 h
Klebsiella pneumoniae [32] = assay: Antibacterial activity against Klebsiella pneumoniae HK11750/08 after 24 hrs by broth microdilution method; assay type: functional; details: HK11750/08, 24 h
Klebsiella pneumoniae [33] = assay: Antibacterial activity against Klebsiella pneumoniae HK11750/08 after 48 hrs by broth microdilution method; assay type: functional; details: HK11750/08, 48 h
Klebsiella pneumoniae [34] = assay: Antibacterial activity against extended spectrum beta-lactamase producing Klebsiella pneumoniae HK14368/08 after 24 hrs by broth microdilution method; assay type: functional; details: HK14368/08, 24 h
Klebsiella pneumoniae [35] = assay: Antibacterial activity against extended spectrum beta-lactamase producing Klebsiella pneumoniae HK14368/08 after 48 hrs by broth microdilution method; assay type: functional; details: HK14368/08, 48 h
Pseudomonas aeruginosa [36] = assay: Antibacterial activity against Pseudomonas aeruginosa ATCC 9027 after 24 hrs by broth microdilution method; assay type: functional; details: ATCC 9027, 24 h
Pseudomonas aeruginosa [37] = assay: Antibacterial activity against Pseudomonas aeruginosa ATCC 9027 after 48 hrs by broth microdilution method; assay type: functional; details: ATCC 9027, 48 h
[38] = Cytotoxicity against human HuH7 cells assessed as cell viability at 30 uM after 48 hrs by MTS assay relative to control; assay type: cell-based, Huh-7; details: read-out: Activity
Huh-7 = assay: Cytotoxicity against human HuH7 cells assessed as cell viability after 48 hrs by MTS assay; assay type: cell-based; details: Huh-7, 48 h
A-431 = assay: Cytotoxicity against human A431 cells assessed as cell viability after 48 hrs by MTS assay; assay type: cell-based; details: A-431, 48 h
[39] = Cytotoxicity against human A431 cells assessed as cell viability at 30 uM after 48 hrs by MTS assay relative to control; assay type: cell-based, A-431; details: read-out: Activity
MDCK = assay: Cytotoxicity against MDCK cells assessed as cell viability after 48 hrs by MTS assay; assay type: cell-based; details: Canis lupus familiaris
[40] = Cytotoxicity against MDCK cells assessed as cell viability at 30 uM after 48 hrs by MTS assay relative to control; assay type: cell-based, Canis lupus familiaris; details: dog, read-out: Activity
HepG2 = assay: Cytotoxicity against human HepG2 cells assessed as cell viability after 48 hrs by MTS assay; assay type: cell-based; details: HepG2, 48 h
[41] = Cytotoxicity against human HepG2 cells assessed as cell viability at 30 uM after 48 hrs by MTS assay relative to control; assay type: cell-based; details: read-out: Activity
[42] = Selectivity index, ratio of IC50 for human HepG2 cells to MIC for Mycobacterium tuberculosis; assay type: toxicity; details: read-out: Selectivity Index
[43] = test system: Mycobacterium tuberculosis; assay: Antimycobacterial activity against Mycobacterium tuberculosis CNCTC My 331/88 after 21 days by micromethod; assay type: functional; details: CNCTC My 331/88, 504 h
Mycobacterium kansasii [44] = assay: Antimycobacterial activity against Mycobacterium kansasii CNCTC My 235/80 after 21 days by micromethod; assay type: functional; details: CNCTC My 235/80, 504 h
Mycobacterium kansasii [45] = assay: Antimycobacterial activity against Mycobacterium kansasii CNCTC My 235/80 after 7 days by micromethod; assay type: functional; details: CNCTC My 235/80, 168 h
Mycobacterium kansasii [46] = assay: Antimycobacterial activity against Mycobacterium kansasii 6509/96 clinical isolate after 21 days by micromethod; assay type: functional; details: 6509/96, 504 h
Mycobacterium kansasii [47] = assay: Antimycobacterial activity against Mycobacterium kansasii 6509/96 clinical isolate after 7 days by micromethod; assay type: functional; details: 6509/96, 168 h

O=[N+]([O-])c1cc(-c2nnc(SCc3ccc(Cl)c(Cl)c3)o2)cc([N+](=O)[O-])c1
MIC (Mycobacterium avium [1]): 32 µM (≈ 13.7 µg/mL)
MIC [2]: 0.03 µM (≈ 0.0128 µg/mL)
MIC (Mycobacterium avium [3]): 16 µM (≈ 6.84 µg/mL)
MIC (Mycobacterium kansasii [4]): 0.03 µM (≈ 0.0128 µg/mL)
MIC (Mycobacterium kansasii [5]): 0.03 µM (≈ 0.0128 µg/mL)
MIC (Candida albicans [6]): > 125 µM
MIC (Candida albicans [7]): > 125 µM
MIC (Candida tropicalis [8]): > 125 µM
MIC (Candida tropicalis [9]): > 125 µM
MIC (Pichia kudriavzevii [10]): > 125 µM
MIC (Pichia kudriavzevii [11]): > 125 µM
MIC (Nakaseomyces glabratus [12]): > 125 µM
MIC (Nakaseomyces glabratus [13]): > 125 µM
MIC (Trichosporon asahii [14]): > 125 µM
MIC (Trichosporon asahii [15]): > 125 µM
MIC (Aspergillus fumigatus [16]): > 125 µM
MIC (Aspergillus fumigatus [17]): > 125 µM
MIC (Lichtheimia corymbifera [18]): > 125 µM
MIC (Lichtheimia corymbifera [19]): > 125 µM
MIC [20]: > 125 µM
MIC [21]: > 125 µM
MIC (Staphylococcus aureus [22]): > 125 µM
MIC (Staphylococcus aureus [23]): > 125 µM
MIC (Staphylococcus aureus [24]): > 125 µM
MIC (Staphylococcus aureus [25]): > 125 µM
MIC [26]: > 125 µM
MIC [27]: > 125 µM
MIC (Enterococcus sp. [28]): > 125 µM
MIC (Enterococcus sp. [29]): > 125 µM
MIC (Escherichia coli [30]): > 125 µM
MIC (Escherichia coli [31]): > 125 µM
MIC (Klebsiella pneumoniae [32]): > 125 µM
MIC (Klebsiella pneumoniae [33]): > 125 µM
MIC (Klebsiella pneumoniae [34]): > 125 µM
MIC (Klebsiella pneumoniae [35]): > 125 µM
MIC (Pseudomonas aeruginosa [36]): > 125 µM
MIC (Pseudomonas aeruginosa [37]): > 125 µM
viability at 48 h, 30 µM [38]: 153%
pIC50 (Huh-7): < 4.52
pIC50 (A-431): < 4.52
viability at 48 h, 30 µM [39]: 126%
pIC50 (MDCK): < 4.52
viability at 48 h, 30 µM [40]: 91%
pIC50 (HepG2): < 4.52
viability at 48 h, 30 µM [41]: 125%
selectivity ratio [42]: > 1000
MIC [43]: 0.03 µM (≈ 0.0128 µg/mL)
MIC (Mycobacterium kansasii [44]): 0.03 µM (≈ 0.0128 µg/mL)
MIC (Mycobacterium kansasii [45]): 0.03 µM (≈ 0.0128 µg/mL)
MIC (Mycobacterium kansasii [46]): 0.03 µM (≈ 0.0128 µg/mL)
MIC (Mycobacterium kansasii [47]): 0.03 µM (≈ 0.0128 µg/mL)
